Patent publication US5049559A, “Thieno-triazolo-diazepine derivatives useful as anti-ischemic agents” (priority 1989, dated 1991)

Assays:
benzodiazepine receptors = experiment: Inhibition of the binding to benzodiazepine receptors; details: rat brains, 1 hour 30 minutes at 4° C., tracers 3H-RO-15-1788 and 3H-RO-5-4864, Table I, read-out: BDZ receptors
Text: 2) Inhibition of the binding to benzodiazepine receptors
The interest of the previous experimentation depends on the results obtained in this experimentation: as a compound of the invention has a benzodiazepine like structure, it is important to check whether the specific benzodiazepine activity would not appear at the dose where platelet aggregation was inhibited.
Therefore, this experimentation has been conducted according to the method of MOHLER H. and RICHARD J. G. Agonist and antagonist benzodiazepine receptor interaction in vitro, Nature, vol. 294, 763-765, 1981.
This experimentation was conducted on rat brains incubated 1 hour 30 minutes at 4° C. using ^3 H-RO-15-1788 and ^3 H-RO-5-4864 (NEN) as tracers and […] and RO-5-4864 as reference antagonists.
The results in molecular concentration are reported in the table I, on the right hand column.

[1] = Global ischemia on gerbils; type: in vivo; details: Meriones unguiculatus, 168 h, carotides clamped 10 minutes, hippocampes one week later, 3H-PK 11195, percentage of protection compared to control
Procedure: 3) Global ischemia on gerbils For this test, males gerbils were anaesthetized with brietal at the doses of 35 mg/kg IP; thereafter, both carotides were clamped for 10 minutes, then the clamping was released. Treated animals received each 10 mg/kg of the compounds of one of the examples. One week later, the animals were killed and both hippocampes were taken, weighed and frozen at -80° C. After crushing with 1 ml of TRIS-HCl pH 7.4 for 30 seconds, aliquots of each 50 μl of this preparation were incubed in each 1 ml of TRIS-HCl buffer containing ^3 H-PK 11195 at 2 nM (90 Ci/mmole, NENE, Germany) for 1 hour at 25° C. For each preparation, 3 determinations were made. The density of omega 3 sites (marked by the specific ^3 H-PK 11195 marker) are expressed in f-moles of PK 11195/mg of fresh tissues and converted in percentage of protection compared to control.

[2] = tested on: platelet aggregation induced by PAF; experiment: Inhibition of platelet aggregation induced by PAF; type: cell-based; details: Oryctolagus cuniculus, male New Zealand rabbits, Table I
Procedure: 1) Inhibition of platelet aggregation induced by PAF
This experimentation was conducted according to the method of R. KINLOUGH. RATHBONE, J. P. CAZENAVE, M. PACKHAM and F. MUSTARD, Lab. Invest. 48, 98, 1980. In this test, New Zealand rabbits were used (male New Zealand rabbits of an average weight of 5 kg).
The determinations are made on a chrono-log Coultronics aggregometer, at […] coupled with a graphic recorder; the results of these determinations (in molecular concentration) are reported on the table I on the central column.

| Structure (SMILES) | IC50 (benzodiazepine receptors) [nM] | inhibition in vivo at 10 mg/kg [1] [%] | IC50 [2] [nM] |
| --- | --- | --- | --- |
| Cc1nnc2n1-c1sc3c(c1C(c1ccccc1Cl)=NC2)CCN(C(=S)CSC(C)C)C3 [Example 2, 6-(2-chlorophenyl)-9-(isopropylthiomethyl-thiocarbonyl)-7,8,9,10-tetrahydro-1-methyl-4H-pyrido [4',3':4,5] thieno [3,2-f] 1,2,4-triazolo [4,3-a] 1,4-diazepine] | 48200 | 36.3 | 28.1 |
| CCCCCCCCCCCCCCCCSCC(=S)N1CCc2c(sc3c2C(c2ccccc2Cl)=NCc2nnc(C)n2-3)C1 [Example 6, 6-(2-chlorophenyl)-9-(hexadecylthiomethyl-thiocarbonyl); 7,8,9, 10-tetrahydro-1-methyl-4H-pyrido [4',3':4,5] thieno [3,2-f] 1,2,4-triazolo[4,3-a] 1,4-diazepine] | 910 | 27.8 | 9.46 |
| COc1cc(SCC(=O)N2CCc3c(sc4c3C(c3ccccc3Cl)=NCc3nnc(C)n3-4)C2)cc(OC)c1OC [Example 13, 6-(2-chlorophenyl)-9-(3,4,5-trimethoxyphenylthiomethylcarbonyl)-7,8,9, 10-tetrahydro-1-methyl-4H-pyrido [4',3':4,5] thieno [3,2-f] 1,2,4-triazolo[4,3-a] 1,4-diazepine] | 55000 | 32.1 | 18.5 |
| Cc1nnc2n1-c1sc3c(c1C(c1ccccc1Cl)=NC2)CCN(C(=S)CSc1ccco1)C3 [Example 32, 6-(2-chlorophenyl)-9-(2-furyl-thiomethyl-thiocarbonyl)-7,8,9, 10-tetrahydro-1-methyl-4H-pyrido [4',3':4,5] thieno [3,2-f] 1,2,4-triazolo[4,3-a] 1,4-diazepine] | 1300 | 30.3 | 8.75 |
| Cc1nnc2n1-c1sc3c(c1C(c1ccccc1Cl)=NC2)CCN(C(=S)CSc1ccc(Oc2ccccc2)cc1)C3 [Example 30, 6-(2-chlorophenyl)-9-(4-phenoxyphenylthiomethyl-thiocarbonyl)-7,8,9, 10-tetrahydro-1-methyl-4H-pyrido [4',3':4,5] thieno [3,2-f] 1,2,4-triazolo[4,3-a] 1,4-diazepine] | 360 | 16.1 | 104 |
| Cc1nnc2n1-c1sc3c(c1C(c1ccccc1Cl)=NC2)CCN(C(=S)CSC(C)(C)C)C3 [Example 4, 6-(2-chlorophenyl)-9-(t.butylthiomethyl-thiocarbonyl)-7,8,9, 10-tetrahydro-1-methyl-4H-pyrido [4',3':4,5] thieno [3,2-f] 1,2,4-triazolo[4,3-a] 1,4-diazepine] | 1550 | 38.1 | 497 |
| Cc1nnc2n1-c1sc3c(c1C(c1ccccc1Cl)=NC2)CCN(C(=S)CSc1ccc(C(C)(C)C)cc1)C3 [Example 18, 6-(2-chlorophenyl)-9-(4-t.butylphenylthiomethyl-thiocarbonyl)-7,8,9, 10-tetrahydro-1-methyl-4H-pyrido [4',3':4,5] thieno [3,2-f] 1,2,4-triazolo[4,3-a] 1,4-diazepine] | 44100 | 12.6 | 23 |
| Cc1nnc2n1-c1sc3c(c1C(c1ccccc1Cl)=NC2)CCN(C(=S)CSc1cccs1)C3 [Example 34, 6-(2-chlorophenyl)-9-(2-thienyl-thiomethyl-thiocarbonyl)-7,8,9, 10-tetrahydro-1-methyl-4H-pyrido [4',3':4,5] thieno [3,2-f] 1,2,4-triazolo[4,3-a] 1,4-diazepine] | 720 | 34.7 | 128 |
| COc1ccc(SCC(=S)N2CCc3c(sc4c3C(c3ccccc3Cl)=NCc3nnc(C)n3-4)C2)c(OC)c1OC [Example 16, 6-(2-chlorophenyl)-9-(2,3,4-trimethoxyphenylthiomethylthiocarbonyl)-7,8,9, 10-tetrahydro-1-methyl-4H-pyrido [4',3':4,5] thieno [3,2-f] 1,2,4-triazolo [4,3-a] 1,4-diazepine] | 600 | 29.3 | 53.5 |
| COc1ccc(SCC(=S)N2CCc3c(sc4c3C(c3ccccc3Cl)=NCc3nnc(C)n3-4)C2)cc1 [Example 10, 6-(2-chlorophenyl)-9-(4-methoxyphenylthiomethyl-thiocarbonyl)-7,8,9, 10-tetrahydro-1-methyl-4H-pyrido [4',3':4,5] thieno [3,2-f] 1,2,4-triazolo[4,3-a] 1,4-diazepine] | 66000 | 10.3 | 171 |
| Cc1nnc2n1-c1sc3c(c1C(c1ccccc1Cl)=NC2)CCN(C(=S)CSc1ccc(C(F)(F)F)cc1)C3 [Example 24, 6-(2-chlorophenyl)-9-(4-trifluoromethylphenylthiomethylthiocarbonyl)-7,8,9, 10-tetrahydro-1-methyl-4H-pyrido [4',3':4,5] thieno [3,2-f] 1,2,4-triazolo [4,3-a] 1,4-diazepine] | 3300 | 38.7 | 32.7 |
| COc1ccc(SCC(=O)N2CCc3c(sc4c3C(c3ccccc3Cl)=NCc3nnc(C)n3-4)C2)cc1OC [Example 11, 6-(2-chlorophenyl)-9-(3,4-dimethoxyphenylthiomethyl-carbonyl)-7,8,9, 10-tetrahydro-1-methyl-4H-pyrido [4',3':4,5] thieno [3,2-f] 1,2,4-triazolo[4,3-a] 1,4-diazepine] | 1400 | 46.5 | 26.4 |
| Cc1nnc2n1-c1sc3c(c1C(c1ccccc1Cl)=NC2)CCN(C(=O)CSc1ccc(F)cc1)C3 [Example 25, 6-(2-chlorophenyl)-9-(4-fluorophenylthiomethyl-carbonyl)-7,8,9, 10-tetrahydro-1-methyl-4H-pyrido [4',3':4,5] thieno [3,2-f] 1,2,4-triazolo[4,3-a] 1,4-diazepine] | 630 | 14.7 | 11.3 |
| Cc1nnc2n1-c1sc3c(c1C(c1ccccc1Cl)=NC2)CCN(C(=O)CSc1ccccc1C(F)(F)F)C3 [Example 19, 6-(2-chlorophenyl)-9-(2-trifluoromethylphenylthiomethylcarbonyl)-7,8,9, 10-tetrahydro-1-methyl-4H-pyrido [4',3':4,5] thieno [3,2-f] 1,2,4-triazolo[4,3-a] 1,4-diazepine] | 270 | 45.6 | 6.36 |
| COc1cc(SCC(=S)N2CCc3c(sc4c3C(c3ccccc3Cl)=NCc3nnc(C)n3-4)C2)cc(OC)c1OC [Example 14, 6-(2-chlorophenyl)-9-(3,4,5-trimethoxyphenylthiomethyl-thiocarbonyl)-7,8,9, 10-tetrahydro-1-methyl-4H-pyrido [4',3':4,5] thieno [3,2-f] 1,2,4-triazolo [4,3-a] 1,4-diazepine] | 1500 | 19.7 | 9.22 |
| Cc1nnc2n1-c1sc3c(c1C(c1ccccc1Cl)=NC2)CCN(C(=O)CSc1ccccc1)C3 [Example 7, 6-(2-chlorophenyl)-9-(phenyl-thiomethyl-carbonyl)-7,8,9, 10-tetrahydro-1-methyl-4H-pyrido [4',3':4,5] thieno [3,2-f] 1,2,4-triazolo[4,3-a] 1,4-diazepine] | 2100 | 14.8 | 511 |
